The experiment concerns pathological retinas. Description: Staining of pathological and healthy retinas with SH peptide, confocal images. The class given is binding, rat. The method, then:
FIG. 7 is a series of confocal images of pathological (row A) and healthy (row B) retinas stained with either SH peptide alone (left hand column), the SH peptide and IB4, which decorates endothelial cells and activated macrophages/microglia (middle column), or SH peptide, IB4 and DAPI (right hand column). Yellow indicates either endothelial cells or activated macrophages/microglia that are also stained with the SH peptide.
The following series of experiments are performed to assess if the unique peptide insert of the SH phage is sufficient for recognition of pathological retinal vessels. A peptide corresponding to the unique insert and the 4 flanking residues on the N and 2 residues on the C termini (GGACSTEALRHCG; SEQ ID NO: 3) is synthesized. To facilitate labeling of the peptide biotin is added on the N-terminus, thereby allowing for detection of the peptide with the fluorescently labeled avidin. The labeled SH peptide, along with the scrambled version is labeled and used to stain flat mounts of RA (experienced room air instead of the OIR protocol) or OIR retinas as was done in FIG. 4. The staining protocol is optimized to identify the suitable concentration of peptide, incubation and wash conditions. If the peptides used in these experiments include all of the necessary sequence information to selectively recognize the pathological retinal vessels, then the peptides work comparably to the phage, as shown in FIG. 4.
Peptides corresponding to those expressed on the surface of the SH phage, e.g., those with the amino acid sequence STEALRH (SEQ ID NO: 2), recognized pathological retinas much more effectively than healthy retinas.

As for “STEALRH (Protein from peptide library) [SH peptide]”, the “comparison with the entire SH phage (strength of the signal, absence of background)” value (FIG. 7) is “superior to the entire SH phage”. Also, the “staining of pathological versus healthy retinas” value (OIR versus healthy retinas, FIG. 7) is on record as “stained pathological retinas much more robustly than healthy retinas”. Moreover, the “recognition of areas without overt pathology” value (pathological retina, in addition to tufts) was “recognized areas without overt pathology”.
